Data reported in article PMC7616177, “From structure to clinic: Design of a muscarinic M1 receptor agonist with the potential to treat Alzheimer’s disease” (Cell, 2021).
Like-named read-outs stand apart in the source and are kept apart here. Values belong to the molecule of their own block, whether it stands above or below them.

How the values were obtained:
[1] = biological target: T1, human M1 receptor (Homo sapiens, UniProt P11229); test: M1-receptor functional agonist assays (pERK1/2 and calcium mobilisation) for hits and SAR; type: cell-based
T1 construct: expressed in transfected cells
T1 sequence (P11229 1-460): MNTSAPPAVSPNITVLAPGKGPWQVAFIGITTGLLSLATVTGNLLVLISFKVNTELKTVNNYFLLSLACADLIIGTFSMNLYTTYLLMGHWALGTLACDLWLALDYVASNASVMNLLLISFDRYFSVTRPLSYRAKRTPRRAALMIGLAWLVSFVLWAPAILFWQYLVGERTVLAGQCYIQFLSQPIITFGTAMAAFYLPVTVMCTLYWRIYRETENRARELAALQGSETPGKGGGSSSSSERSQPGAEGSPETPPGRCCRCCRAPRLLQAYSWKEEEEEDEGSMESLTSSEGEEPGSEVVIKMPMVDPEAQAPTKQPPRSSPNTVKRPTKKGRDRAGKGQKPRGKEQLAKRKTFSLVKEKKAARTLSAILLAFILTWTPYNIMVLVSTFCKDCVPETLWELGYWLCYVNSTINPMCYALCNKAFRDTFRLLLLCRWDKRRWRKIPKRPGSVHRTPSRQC

[2] = biological target: T2, M3-receptor (Homo sapiens, UniProt P20309); test: M3-receptor functional agonist assay; type: cell-based
T2 construct: expressed in transfected cells
Experimental: (§1) Functional assays were performed using the Alphascreen Surefire phopho-ERK1/2 assay. […] Once adhered, cells were serum starved overnight. Agonist stimulation was performed by the addition of […] agonist to the cells for a pre-optimized 5 min period (37°C). Media was removed and 50 μl of lysis buffer added. After 15 min a 4 μl sample was transferred to a 384-well plate and 7 μl of detection mixture added.

[3] = biological target: T3, M2-receptor (Homo sapiens, UniProt P08172); test: M2-receptor functional agonist assay; type: cell-based; set-up: expressed in transfected cells
T3 sequence (P08172 1-466): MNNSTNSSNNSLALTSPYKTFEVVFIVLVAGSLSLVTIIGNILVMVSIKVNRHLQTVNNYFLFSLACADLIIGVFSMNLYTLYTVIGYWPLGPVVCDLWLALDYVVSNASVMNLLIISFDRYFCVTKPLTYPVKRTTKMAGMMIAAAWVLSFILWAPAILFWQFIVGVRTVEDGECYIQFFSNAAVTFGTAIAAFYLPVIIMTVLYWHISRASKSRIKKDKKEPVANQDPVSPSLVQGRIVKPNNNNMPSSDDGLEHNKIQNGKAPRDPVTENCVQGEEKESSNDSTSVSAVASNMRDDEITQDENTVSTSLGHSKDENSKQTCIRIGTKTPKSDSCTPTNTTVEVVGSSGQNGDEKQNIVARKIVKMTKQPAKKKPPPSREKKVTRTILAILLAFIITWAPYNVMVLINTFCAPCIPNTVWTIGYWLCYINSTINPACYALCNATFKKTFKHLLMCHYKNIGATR
Experimental: as §1

[4] = biological target: T4, M4-receptor (Homo sapiens, UniProt P08173); test: M4-receptor functional agonist assay; type: cell-based; set-up: expressed in transfected cells; details: for EC50: read-out: M4-receptor EC50
T4 sequence (P08173 1-479): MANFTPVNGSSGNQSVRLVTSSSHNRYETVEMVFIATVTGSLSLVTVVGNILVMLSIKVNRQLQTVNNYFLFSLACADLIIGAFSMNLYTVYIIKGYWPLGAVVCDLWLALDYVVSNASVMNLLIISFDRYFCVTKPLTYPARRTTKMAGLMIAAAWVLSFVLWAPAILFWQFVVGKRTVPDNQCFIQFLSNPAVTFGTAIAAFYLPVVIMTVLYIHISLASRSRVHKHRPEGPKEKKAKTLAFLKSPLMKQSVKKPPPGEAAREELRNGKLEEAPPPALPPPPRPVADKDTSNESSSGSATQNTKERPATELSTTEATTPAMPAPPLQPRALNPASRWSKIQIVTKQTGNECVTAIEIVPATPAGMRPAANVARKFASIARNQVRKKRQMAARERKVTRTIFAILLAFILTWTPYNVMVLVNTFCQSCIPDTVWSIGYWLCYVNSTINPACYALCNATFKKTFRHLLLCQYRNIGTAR
Experimental: as §1

[5] = test system: Wistar rats; test: Scopolamine-induced amnesia in passive avoidance; type: in vivo, rat; details: rat passive avoidance, donepezil 0.01 mg/kg
Experimental: Male adult Wistar rats (Harlan, UK; approximately 11 weeks of age) were acclimatised to the experimental rooms for three days (study days 1-3) and handled for a further two days (study days 4 and 5) prior to the experiment.
Donepezil (0.01 and 0.1 mg/kg) was administered via intraperitoneal injection (in saline) 60 min prior to training. Rats were trained in a single-trial, step-through, light-dark passive avoidance paradigm. The training apparatus consisted of a chamber 300 mm in length, 260 mm wide, and 270 mm in height. The front and top were transparent, allowing the experimenter to observe the behavior of the animal inside the apparatus. The chamber was divided into two compartments, separated by a central shutter that contained a small opening (50 mm wide and 75 mm high) set close to the front of the chamber. The smaller of the compartments measured 90 mm in width and contained a low-light (~200 lux) illumination source. The larger compartment measured 210 mm in width and was not illuminated. The floor of this dark compartment consisted of a grid of 16 horizontal stainless-steel bars that were 5 mm in diameter and spaced 12.5 mm apart. A current generator supplied 0.75 mA to the grid floor, which was scrambled once every 0.5 s across the 16 bars.
Animals were placed facing the rear of the light compartment of the apparatus, immediately after which, spontaneous behavior was assessed. The timer was started once the animal completely turned to face the front of the chamber. Latency to enter the dark chamber was recorded, and having completely entered the dark compartment foot shock was administered to the animal, which immediately returned to the light compartment. Animals were then returned to their home cages. Between each training session, both compartments of the chamber were cleaned to remove any confounding olfactory cues. Vehicle (saline) or scopolamine (1 mg/kg) was administered to rats 6 hours after training. Recall of the inhibitory stimulus was evaluated 24 hour post-training on study day 7, by returning the animal into the light chamber and recording their latency to enter the dark chamber, a criterion time of 600 s was employed. Observation of the animals was made by overhead video camera linked to a monitor behind a screened area. Animal treatment was blinded to the observer.

[6] = SAR, Table S4, read-out: M1-receptor agonist activity EC50

T2 sequence (P20309 whole entry): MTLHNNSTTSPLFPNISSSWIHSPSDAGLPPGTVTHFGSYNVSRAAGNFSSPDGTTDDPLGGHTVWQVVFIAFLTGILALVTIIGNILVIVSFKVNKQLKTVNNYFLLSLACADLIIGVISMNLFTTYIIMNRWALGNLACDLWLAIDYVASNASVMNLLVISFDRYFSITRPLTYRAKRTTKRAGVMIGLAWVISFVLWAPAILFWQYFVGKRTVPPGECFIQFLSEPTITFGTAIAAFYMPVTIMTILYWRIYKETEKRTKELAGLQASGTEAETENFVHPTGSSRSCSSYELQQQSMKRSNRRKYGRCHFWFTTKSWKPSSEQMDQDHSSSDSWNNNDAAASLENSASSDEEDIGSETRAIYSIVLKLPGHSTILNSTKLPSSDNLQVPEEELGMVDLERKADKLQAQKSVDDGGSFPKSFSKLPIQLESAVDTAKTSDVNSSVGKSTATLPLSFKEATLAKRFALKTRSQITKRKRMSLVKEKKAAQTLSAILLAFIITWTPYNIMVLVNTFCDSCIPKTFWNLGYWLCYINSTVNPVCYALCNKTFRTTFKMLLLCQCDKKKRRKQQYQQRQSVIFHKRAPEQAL

Compound: CCOC(=O)N1CCC[C@@H](N2CCC(C(=O)NC3(C)CCC3)CC2)CC1 [(R)-Compound 7]
- EC50 [1, 6]: 398 nM
- EC50 ([2]; read-out: M3-receptor EC50): > 20000 nM
- EC50 ([3]; read-out: M2-receptor EC50): > 20000 nM
- EC50 [4]: 2500 nM

Compound: CCOC(=O)N1CCC(N2CCC(C(N)=O)CC2)CC1 [Compound 4]
- EC50 ([1]; fragment hit, read-out: EC50 at the M1-receptor): 3500 nM

Compound: CCOC(=O)N1CCC(N2CCC(C(=O)NCC(C)C)CC2)CC1 [Compound 5]
- EC50 [1, 6]: 316 nM
- M2-receptor agonist activity [3]: weak
- M4-receptor agonist activity [4]: weak

Compound: COc1cc2c(cc1OC)C(=O)C(CC1CCN(Cc3ccccc3)CC1)C2 (stereo not drawn) [donepezil, reference compound]
- Response alone [5]: inactive

The remaining lines, values ahead:

- EC50 ([1]; calcium assays, read-out: Potency at the M1-receptor in calcium assays EC50): 79 nM
- M3-receptor agonist activity [2]: no detectable agonist activity
- M2-receptor agonist activity [3]: no detectable agonist activity
- Lower potency at M4-receptors relative to M1 ([4]; M4 vs M1): ten-fold
- EC50 [4]: 794 nM
Compound: CCOC(=O)N1CCCC(N2CCC(C(=O)NCC(C)C)CC2)CC1 (stereo not drawn) [Compound 6]

- M2-receptor agonist activity [3]: significant M2-receptor agonist activity
Compound: Cc1cc(F)c2[nH]c(=O)n(C3CCN(C4CCOCC4)CC3)c2c1 [GSK1034702, reference compound]
